Measurements: patent US12440584B2, “Macrocyclic ligands with pendant chelating moieties and complexes thereof” (LUMIPHORE, INC., priority 2018, dated 2025)

Assays:
Type in all cases: physicochemical
[1] = UV-vis titration with europium chloride for extinction coefficients
Description: In order to determine accurate extinction coefficients for 16 and 16·Eu, titration experiments using europium chloride as the titrant were performed. Europium chloride hexahydrate (13.22 mg, 0.03608 mmol) was dissolved into 5 mM citrate buffer (pH=4) using a 100 mL volumetric flask to give a 0.3608 mM europium chloride solution, which was then titrated into a 0.5 mL solution of 16 in TBS buffer (Tris-buffered saline, 50 mM Tris, 150 mM NaCl, pH=7.6) using 5 μL aliquots. The UV-vis spectra were adjusted for the increase in solvent volume due to each injection. The results of the UV-vis titration are plotted in FIG. 3.
The volume of europium chloride corresponds to 16.70 nmol of europium, meaning the starting concentration of ligand 16 was 33.40 μM. […] These absorbance and concentration values yield extinction coefficients of 13,600 M^−1 cm^−1 and 14,300 M^−1 cm^−1 for the ligand 16 and the complex 16·Eu respectively.
In order to determine accurate extinction coefficients for 43 and 43 Eu, titration experiments using europium chloride as the titrant were performed. Europium chloride hexahydrate (47.58 mg, 0.1299 mmol) was dissolved into 50 mM citrate buffer (pH=4) using a 10 mL volumetric flask to give a 12.99 mM europium chloride solution, which was then transferred to a 100 mL volumetric flask and diluted 1:10 with water. The resulting 1.299 mM europium chloride solution (in 5 mM citrate buffer) was then titrated into a 1 mL solution of 43 in TBS buffer using 5 μL aliquots. The UV-vis spectra were adjusted for the increase in solvent volume due to each injection. The results of the UV-vis titration are plotted in FIG. 4.
The volume of europium chloride corresponds to 47.46 nmol of europium, meaning the starting concentration of ligand 43 was 47.46 μM. […] These absorbance and concentration values yield extinction coefficients of 13,000 M^−1 cm^−1 and 12,800 M^−1 cm^−1 for the ligand and complex respectively.

[2] = Luminescence titration of ligand 43 with europium chloride; details: 383 nm (ligand), 357 nm (complex)
Description: Titration of ligand 43 was also performed by luminescence (FIG. 5), monitoring the europium signal at 612 nm upon photoexcitation of the solution at 340 nm. The ligand solution used for the UV-vis titration of 43 mentioned above was first diluted 1:10 in TBS buffer. Similarly, the 1.299 mM stock europium solution was separately diluted 1:10 with water. […] The 32.99 μL equivalence point gives extinction coefficients of 14,400 M^−1 cm^−1 at 383 nm and 14,200 M^−1 cm^−1 at 357 nm for 43 and 43 Eu respectively. Averaging the values from both UV-vis and luminescence titration experiments of 43 yields extinction coefficients of 13,700 M^−1 cm^−1 at 383 nm and 13,500 M^−1 cm^−1 at 357 nm for 43 and 43 Eu respectively.

[3] = Photophysical characterization of Eu complexes (UV-vis, luminescence, quantum yield, lifetime); details: TBS buffer, pH 7.6
Description: The europium complexes of ligands 16, 29, 33, 40, and 43 were prepared by separately dissolving each ligand (2 mg) into methanol (200 μL). Excess europium chloride hexahydrate (˜5 equivalents) was dissolved in methanol (200 μL) and the full volume was added to each of the ligand solutions. The solvent was removed, and the residue was dissolved into DMF (50 μL). The europium complexes were then purified by semi-prep HPLC on an Agilent 1260 Infinity instrument using an Eclipse XDB-C18 column (5 μm, 9.4×250 mm). The mobile phase was 10 to 30% acetonitrile in water containing 0.1% trifluoroacetic acid. The volatiles were removed from the HPLC eluents under vacuum, and the residues were separately dissolved into methanol (500 μL) to give methanolic stock solutions of each europium complex with greater than 98% purity. A few drops of these methanolic solutions were evaporated to dryness, and then the residue was dissolved into TBS buffer at a concentration of ca. 3 μM to make aqueous stock solutions (20 mL) with an absorbance of 0.05 (1 cm path length) at 365 nm. […] Quinine sulfate dissolved in 0.05 M sulfuric acid was similarly diluted to a final absorbance of 0.05 at 365 nm, and this solution was similarly (1/6, 2/6, 3/6, 4/6, and 5/6) diluted to afford six quinine sulfate reference samples of evenly spaced concentration. […] By measuring the absorbance and luminescence of these dilute solutions, the quantum yields of the new Eu complexes were determined. A 5 cm path-length quartz cell was used to measure the absorbance of these dilute solutions in order to improve the UV-vis signal-to-noise. Steady state photoluminescence measurements were collected in a 1 cm fluorescence cuvette at 365 nm excitation wavelength, 1 nm resolution, 10 nm excitation slit width, 1 nm emission slit width, and 0.2 sec integration time on an instrument that has been described elsewhere (D'Aleo, A.; Moore, E. G.; Szigethy, G.; Xu, J.; Raymond, K. N. Inorg. Chem. 2009, 48, 9316·). […]

lambda max ([1]; UV-vis titration, TBS buffer): 383 nm | extinction coefficient ([1]; UV-vis titration, at lambda max): 13,000 M^−1 cm^−1 | ε at λmax ([1]; measured by europium titration, TBS buffer): 13,700 M^−1cm^−1 | extinction coefficient, average of UV-vis and luminescence titrations [2]: 13,700 M^−1 cm^−1 | extinction coefficient ([2]; luminescence titration): 14,400 M^−1 cm^−1 | ε260/ε at λmax [3]: 1.96 | ε280/ε at λmax [3]: 1.27 | λmax [3]: 383 nm
SMILES: NCCOCCNC(=O)C1CCCN(C(=O)c2cccc(=O)n2O)CCCNC(=O)c2ccc(n(O)c2=O)C(=O)N[C@@H]2COC[C@@H]2NC(=O)c2ccc(c(=O)n2O)C(=O)NCCCN1C(=O)c1cccc(=O)n1O (some centres unmarked) [Compound 43]
